This note sets out measurements from patent US12156880B2, “Heterocyclic RIP1 kinase inhibitors” (Rigel Pharmaceuticals, Inc., priority 2021, dated 2024).

The target in assay [1] is T1, RIPK1 (Homo sapiens, UniProt Q13546).
T1 sequence (Q13546 1-671): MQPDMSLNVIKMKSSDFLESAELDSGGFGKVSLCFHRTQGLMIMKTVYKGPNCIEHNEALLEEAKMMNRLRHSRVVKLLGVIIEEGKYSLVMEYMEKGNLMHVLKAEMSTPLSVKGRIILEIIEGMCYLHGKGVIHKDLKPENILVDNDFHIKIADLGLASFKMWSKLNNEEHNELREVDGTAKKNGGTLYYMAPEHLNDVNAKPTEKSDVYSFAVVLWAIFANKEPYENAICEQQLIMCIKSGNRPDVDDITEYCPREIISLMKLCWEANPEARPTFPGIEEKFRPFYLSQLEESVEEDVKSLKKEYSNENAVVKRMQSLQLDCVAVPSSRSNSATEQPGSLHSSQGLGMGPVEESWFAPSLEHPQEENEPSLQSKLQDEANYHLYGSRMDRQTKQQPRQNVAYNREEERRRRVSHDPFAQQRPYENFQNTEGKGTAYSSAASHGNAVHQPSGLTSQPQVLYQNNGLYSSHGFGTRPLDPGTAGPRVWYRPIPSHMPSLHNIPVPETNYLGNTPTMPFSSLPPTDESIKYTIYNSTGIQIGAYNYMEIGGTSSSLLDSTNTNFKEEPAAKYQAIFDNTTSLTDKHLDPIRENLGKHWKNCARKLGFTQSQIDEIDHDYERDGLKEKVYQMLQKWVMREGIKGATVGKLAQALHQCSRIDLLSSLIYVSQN
Briefly: RIPK1 ADP-Glo biochemical kinase assay. The note with it: read-out: RIPK1 ADP-Glo Kinase (IC50). In a few lines:
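RIPK1 at 31 ng/well in Tris pH 7.4 buffer with MgCl2, BSA, DTT and MnCl2, reacted with compounds (duplicate) for 30 min at 30 °C. ADP formed detected by ADP-Glo: 40 min stop/depletion, then 30 min detection reagent at room temperature; luminescence read.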

Assay [2] concerns L929 cells. The experiment in a line: L929 cell necroptosis assay (TNFa + zVAD, CellTiter-Glo recovery). It counts as cell-based, murine. The conditions noted are these: Mus musculus, L929, 18 h, TNFa 2 ng/mL + zVAD-fmk, read-out: L929-CTG-recovery, L929, TNFa + zVAD (IC50). In short, it runs like this: (§1)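 Human U937 (50K/well, 60 uM zVAD-fmk medium, plated same day) or murine L929 (10K/well, plated 18 h, then 40 uM zVAD-fmk medium) were grown in RPMI with 10% FBS. Both were pretreated with compound for 1 h at 37 °C before TNFa at 2 ng/mL final. Viability was read by CellTiter-Glo luminescence after 18 h.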

Assay [3] has as its system U937 cells. Briefly: U937 cell necroptosis assay (TNFa + zVAD, CellTiter-Glo recovery). It counts as cell-based. The conditions noted are these: Homo sapiens, U-937, 18 h, TNFa 2 ng/mL + zVAD-fmk, read-out: U937 Zvad TNF CTG Recovery, U937, TNFa + zVAD (IC50). In short, it runs like this: as §1
Background: ATP-based viability assays read luminescence as a measure of living cells.

SMILES strings stand for the structures.

What is called IC50 is the concentration that gives 50% inhibition. With `CN1C(=O)[C@@H](NC(=O)n2cc(Cc3cccc(F)n3)cn2)CCc2ccc(Br)cc21` [I-35, (S)—N-(8-Bromo-1-methyl-2-oxo-2,3,4,5-tetrahydro-1H-benzo[b]azepin-3-yl)-4-((6-fluoropyridin-2-yl)methyl)-1H-pyrazole-1-carboxamide], the IC50 worked out at 19.4 nM in assay [1], 6860 nM in assay [2] and 70 nM in assay [3].

Consider `CN1C(=O)[C@@H](NC(=O)c2cc(Oc3cccnc3)ccn2)COc2ccc(C#CC(C)(C)C)cc21` [I-102, (S)—N-(7-(3,3-dimethylbut-1-yn-1-yl)-5-methyl-4-oxo-2,3,4,5-tetrahydrobenzo[b][1,4]oxazepin-3-yl)-4-(pyridin-3-yloxy)picolinamide], for which the IC50 is 29.5 nM in assay [1], 645 nM in assay [2] and 7.5 nM in assay [3].

Consider `CN1C(=O)[C@@H](NC(=O)n2cc(Cc3cccc(F)n3)cn2)CCc2c(F)cc(C#CC(C)(C)O)cc21` [I-121, (S)—N-(6-Fluoro-8-(3-hydroxy-3-methylbut-1-yn-1-yl)-1-methyl-2-oxo-2,3,4,5-tetrahydro-1H-benzo[b]azepin-3-yl)-4-((6-fluoropyridin-2-yl)methyl)-1H-pyrazole-1-carboxamide], for which the IC50 in assay [1] was 26.1 nM; in assay [2] it was 11000 nM; in assay [3], 174 nM.

With `Cc1nc(Cc2ccnc(C(=O)N[C@H]3COc4ccc(C#CC5(O)COC5)cc4N(C)C3=O)c2)cs1` [I-66, (S)—N-(7-((3-hydroxyoxetan-3-yl)ethynyl)-5-methyl-4-oxo-2,3,4,5-tetrahydrobenzo[b][1,4]oxazepin-3-yl)-4-((2-methylthiazol-4-yl)methyl)picolinamide], the IC50 in assay [1] was 15.4 nM; in assay [2], 98 nM; in assay [3], 35.4 nM.

With `CN1C(=O)[C@@H](NC(=O)n2cc(Cc3cccnc3F)cn2)COc2ccc(C#CC3(O)CCOCC3)cc21` [I-44, (S)-4-((2-Fluoropyridin-3-yl)methyl)-N-(7-((4-hydroxytetrahydro-2H-pyran-4-yl)ethynyl)-5-methyl-4-oxo-2,3,4,5-tetrahydrobenzo[b][1,4]oxazepin-3-yl)-1H-pyrazole-1-carboxamide], the concentration for half-maximal inhibition (IC50) in assay [1] was found to be 62.9 nM; in assay [2], 4120 nM; in assay [3] it was 18 nM.

On to `CN1C(=O)[C@@H](NC(=O)n2cc(Cc3cccc(F)n3)cn2)CCc2ccc(C#CC3(O)CCOCC3)cc21` [I-116, (S)-4-((6-Fluoropyridin-2-yl)methyl)-N-(8-((4-hydroxytetrahydro-2H-pyran-4-yl)ethynyl)-1-methyl-2-oxo-2,3,4,5-tetrahydro-1H-benzo[b]azepin-3-yl)-1H-pyrazole-1-carboxamide], for which the IC50 in assay [1] was 12.9 nM; in assay [2], 69.4 nM; in assay [3], 0.5 nM.

Consider `CN1C(=O)[C@@H](NC(=O)c2cc(Oc3cccnc3F)ccn2)COc2ccc(C#CC3(O)CCC3)cc21` [I-83, (S)-4-((2-fluoropyridin-3-yl)oxy)-N-(7-((1-hydroxycyclobutyl)ethynyl)-5-methyl-4-oxo-2,3,4,5-tetrahydrobenzo[b][1,4]oxazepin-3-yl)picolinamide], for which the half-maximal inhibitory concentration (IC50) in assay [1] worked out at 19.1 nM; in assay [2], 218 nM; in assay [3] it was 1.4 nM.

Take `Cc1ccc(Oc2ccnc(C(=O)N[C@H]3COc4ccc(C#CC(C)(C)O)cc4N(C)C3=O)c2)cn1` [I-4, (S)—N-(7-(3-hydroxy-3-methylbut-1-yn-1-yl)-5-methyl-4-oxo-2,3,4,5-tetrahydrobenzo[b][1,4]oxazepin-3-yl)-4-((6-methylpyridin-3-yl)oxy)picolinamide]: the results for the IC50 in assay [1], in assay [2] and in assay [3] were 55.3 nM, 7060 nM and 361 nM, respectively.

In the case of `CN1C(=O)[C@@H](NC(=O)c2cc(Cc3cccc(C#N)n3)ccn2)COc2ccc(C#CC3(O)COC3)cc21` [I-94, (S)-4-((6-cyanopyridin-2-yl)methyl)-N-(7-((3-hydroxyoxetan-3-yl)ethynyl)-5-methyl-4-oxo-2,3,4,5-tetrahydrobenzo[b][1,4]oxazepin-3-yl)picolinamide], the IC50 was determined as 18 nM in assay [1], 3790 nM in assay [2] and 23.7 nM in assay [3].

Take `Cc1nc(Cc2ccnc(C(=O)N[C@H]3COc4ccc(C#CC(C)(C)O)cc4N(C)C3=O)c2)cs1` [I-65, (S)—N-(7-(3-hydroxy-3-methylbut-1-yn-1-yl)-5-methyl-4-oxo-2,3,4,5-tetrahydrobenzo[b][1,4]oxazepin-3-yl)-4-((2-methylthiazol-4-yl)methyl)picolinamide]: the concentration for half-maximal inhibition (IC50) is 18.1 nM in assay [1], 76.3 nM in assay [2] and 43.4 nM in assay [3].

Turning to `CN1C(=O)[C@@H](NC(=O)c2cc(Cc3cscn3)ccn2)COc2ccc(C#CC3(O)COC3)cc21` [I-76, (S)—N-(7-((3-hydroxyoxetan-3-yl)ethynyl)-5-methyl-4-oxo-2,3,4,5-tetrahydrobenzo[b][1,4]oxazepin-3-yl)-4-(thiazol-4-ylmethyl)picolinamide], the IC50 in assay [1] turned out to be 12.8 nM; in assay [2] it was 538 nM; in assay [3], 24.7 nM.

Take `Cc1cccc(Cc2ccnc(C(=O)N[C@H]3COc4ccc(C#CC(C)(C)O)cc4N(C)C3=O)c2)n1` [I-11, (S)—N-(7-(3-hydroxy-3-methylbut-1-yn-1-yl)-5-methyl-4-oxo-2,3,4,5-tetrahydrobenzo[b][1,4]oxazepin-3-yl)-4-((6-methylpyridin-2-yl)methyl)picolinamide]: the IC50 in assay [1] is 120 nM; in assay [2], 7430 nM; in assay [3] it was 126 nM.

Take `Cc1ncccc1Oc1ccnc(C(=O)N[C@H]2COc3ccc(C#CC4(O)COC4)cc3N(C)C2=O)c1` [I-75, (S)—N-(7-((3-hydroxyoxetan-3-yl)ethynyl)-5-methyl-4-oxo-2,3,4,5-tetrahydrobenzo[b][1,4]oxazepin-3-yl)-4-((2-methylpyridin-3-yl)oxy)picolinamide]: the values for the IC50 in assay [1], in assay [2] and in assay [3] were 10.4 nM, 1870 nM and 34.3 nM, respectively.

For the compound `CN1C(=O)[C@@H](NC(=O)c2cc(Oc3cccnc3C(F)(F)F)ccn2)COc2ccc(C#CC(C)(C)O)cc21` [I-87, (S)—N-(7-(3-hydroxy-3-methylbut-1-yn-1-yl)-5-methyl-4-oxo-2,3,4,5-tetrahydrobenzo[b][1,4]oxazepin-3-yl)-4-((2-(trifluoromethyl)pyridin-3-yl)oxy)picolinamide], the 50% inhibitory concentration (IC50) in assay [1] amounted to 51.3 nM; in assay [2], 11200 nM; in assay [3] it was 536 nM.

For the compound `CN1C(=O)[C@@H](NC(=O)n2cc(Cc3cccc(F)n3)cn2)CCc2ccc(C#CC(C)(C)O)cc21` [I-114, (S)-4-((6-Fluoropyridin-2-yl)methyl)-N-(8-(3-hydroxy-3-methylbut-1-yn-1-yl)-1-methyl-2-oxo-2,3,4,5-tetrahydro-1H-benzo[b]azepin-3-yl)-1H-pyrazole-1-carboxamide], the values for the IC50 in assay [1], in assay [2] and in assay [3] were 19.4 nM, 51.2 nM and 1 nM, respectively.

As to `CN1C(=O)[C@@H](NC(=O)n2cc(Cc3cccc(F)n3)cn2)COc2ccc(C#CC3(O)CCOCC3)cc21` [I-33, (S)-4-((6-Fluoropyridin-2-yl)methyl)-N-(7-((4-hydroxytetrahydro-2H-pyran-4-yl)ethynyl)-5-methyl-4-oxo-2,3,4,5-tetrahydrobenzo[b][1,4]oxazepin-3-yl)-1H-pyrazole-1-carboxamide], the 50% inhibitory concentration (IC50) in assay [1] turned out to be 17.1 nM; in assay [2], 1130 nM; in assay [3], 11.6 nM.

As to `Cc1cccc(Cc2ccnc(C(=O)N[C@H]3COc4ccc(C#CC5(O)COC5)cc4N(C)C3=O)c2)n1` [I-12, (S)—N-(7-((3-hydroxyoxetan-3-yl)ethynyl)-5-methyl-4-oxo-2,3,4,5-tetrahydrobenzo[b][1,4]oxazepin-3-yl)-4-((6-methylpyridin-2-yl)methyl)picolinamide], the IC50 in assay [1] was 25.2 nM; in assay [2], 3470 nM; in assay [3], 73.4 nM.

`CN1C(=O)[C@@H](NC(=O)c2cc(Cc3cocn3)ccn2)COc2ccc(C#CC(C)(C)O)cc21` [I-137, (S)—N-(7-(3-hydroxy-3-methylbut-1-yn-1-yl)-5-methyl-4-oxo-2,3,4,5-tetrahydrobenzo[b][1,4]oxazepin-3-yl)-4-(oxazol-4-ylmethyl)picolinamide]: the concentration for half-maximal inhibition (IC50) in assay [1] turned out to be 11.9 nM; in assay [2] it was 87.4 nM; in assay [3], 25.5 nM.
